This note sets out measurements from US10570184B2, “GLP-1/glucagon receptor co-agonists for medical use” (Novo Nordisk A/S, priority 2014, dated 2020).

Starred links: 1 amine or outer side, 2 acyl side, 3 side chain; linkers in the order of their positions; H or OH if unused. Non-standard residues stand in square brackets, D forms with d. Residues, ends and D or L forms follow the SMILES beside them. Groups on a side chain read outwards from the residue. *: point of attachment. C18 diacid = O=C(O)CCCCCCCCCCCCCCCCC(=O)*; γGlu = O=C(O)[C@H](CCC(=O)[*:2])N[*:1]; AEEA = NCCOCCOCC(=O)O; Aib = CC(C)(N)C(=O)O

A word on the IC50: it is the concentration needed to halve the response being measured.

One data set deals with T1, human GLP-1 receptor (Homo sapiens, UniProt P43220).
T1 construct: expressed in transfected cells; host or cells: membranes of BHK cells (parent BHKTS13), clone FCW467-12A
Put plainly: Assay (II)(a) GLP-1 receptor binding, 125I-GLP-1 displacement SPA on BHK membranes. Particulars: without presence of serum albumin; read-out: GLP-1R IC50 (nM) [Assay (II)(a)]. In short, it runs like this: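 Membranes from BHK cells (clone FCW467-12A) stably expressing human GLP-1R were incubated with serially diluted compounds (8×10EE-13 to 8×10EE-7 M before addition) and [125I]-GLP-1-(7-36)NH2 with WGA SPA beads, 2 h at 30° C, pH 7.4. IC50 taken from displacement by non-linear regression. Run at ≤0.001% or 2.0% final serum albumin.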

Data set [1] in a line: Assay (III) ThT fibrillation assay for physical stability. The data set is classed as physicochemical. Particulars: 250 μM in 10 mM HEPES buffer, 37° C., shaking 960 rpm. From the text:
The purpose of this assay is to assess the physical stability of the glucagon derivatives of the invention in aqueous solutions. Low physical stability of a peptide may lead to amyloid fibril formation, which is observed as well-ordered, thread-like macromolecular structures in the sample, which eventually may lead to gel formation. This has traditionally been measured by visual inspection of the sample. However, that kind of measurement is very subjective and depending on the observer. Therefore, the application of a small molecule indicator probe is much more advantageous. Thioflavin T (ThT) is such a probe and has a distinct fluorescence signature when binding to fibrils [Naiki et al. (1989) Anal. Biochem. 177, 244-249; LeVine (1999) Methods. Enzymol. 309, 274-284]. […] The constant t0 is the time needed to reach 50% of maximum fluorescence. The two important parameters describing fibril formation are the lag-time calculated by t0−2τ and the apparent rate constant kapp 1/τ. Samples were prepared freshly before each assay. Each sample composition is described in the legends. The pH of the sample was adjusted to the desired value using appropriate amounts of concentrated NaOH and HCl. Thioflavin T was added to the samples from a stock solution in H2O to a final concentration of 1 μM. Sample aliquots of 200 μl (250 μM of the glucagon derivative in 10 mM HEPES buffer, pH 7.5) were placed in a 96 well microtiter plate (Packard OptiPlate™-96, white polystyrene). Usually, four or eight replica of each sample (corresponding to one test condition) were placed in one column of wells. The plate was sealed with Scotch Pad (Qiagen). Incubation at given temperature, shaking and measurement of the ThT fluorescence emission were done in a Fluoroskan Ascent FL fluorescence platereader (Thermo Labsystems). The temperature was adjusted to 37° C. The plate was incubated with orbital shaking adjusted to 960 rpm with an amplitude of 1 mm. Fluorescence measurement was done using excitation through a 444 nm filter and measurement of emission through a 485 nm filter. Each run was initiated by incubating the plate at the assay temperature for 10 min. The plate was measured every 20 minutes for a desired period of time. Between each measurement, the plate was shaken and heated as described. After completion of the ThT assay the four or eight replica of each sample was pooled and centrifuged at 20000 rpm for 30 minutes at 18° C. The supernatant was filtered through a 0.22 μm filter and an aliquot was transferred to a HPLC vial. The concentration of peptide in the initial sample and in the filtered supernatant was determined by reverse phase HPLC using an appropriate standard as reference. The percentage fraction the concentration of the filtered sample constituted of the initial sample concentration was reported as the recovery. The measurement points were saved in Microsoft Excel format for further processing and curve drawing and fitting was performed using GraphPad Prism. The background emission from ThT in the absence of fibrils was negligible. The data points are typically a mean of four or eight samples and shown with standard deviation error bars. Only data obtained in the same experiment (i.e. samples on the same plate) are presented in the same graph ensuring a relative measure of fibrillation between experiments. The data set may be fitted to Eq. (1).

T1 sequence (P43220 24-463): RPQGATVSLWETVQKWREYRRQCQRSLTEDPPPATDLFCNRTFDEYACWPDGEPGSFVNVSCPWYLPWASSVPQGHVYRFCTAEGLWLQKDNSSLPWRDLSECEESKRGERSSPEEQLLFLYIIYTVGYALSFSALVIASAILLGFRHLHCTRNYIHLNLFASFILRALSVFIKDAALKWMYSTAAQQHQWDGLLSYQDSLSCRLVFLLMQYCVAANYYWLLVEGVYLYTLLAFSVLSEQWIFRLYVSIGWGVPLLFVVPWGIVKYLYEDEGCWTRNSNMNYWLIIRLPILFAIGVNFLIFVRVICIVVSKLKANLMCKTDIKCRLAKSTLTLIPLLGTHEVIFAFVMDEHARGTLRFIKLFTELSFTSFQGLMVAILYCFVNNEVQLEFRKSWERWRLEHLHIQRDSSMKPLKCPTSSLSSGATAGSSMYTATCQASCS

With `CC[C@H](C)[C@H](NC(=O)[C@H](CC(C)C)NC(=O)[C@H](Cc1c[nH]c2ccccc12)NC(=O)[C@H](CCC(N)=O)NC(=O)[C@@H](NC(=O)[C@H](Cc1ccccc1)NC(=O)[C@H](CCC(=O)O)NC(=O)[C@H](CCCNC(=N)N)NC(=O)[C@H](C)NC(=O)[C@H](CCCNC(=N)N)NC(=O)[C@H](CCCNC(=N)N)NC(=O)[C@H](CC(C)C)NC(=O)[C@H](CC(=O)O)NC(=O)[C@H](CC(C)C)NC(=O)[C@H](Cc1ccc(O)cc1)NC(=O)[C@H](CCCCN)NC(=O)[C@H](CO)NC(=O)[C@H](CC(C)C)NC(=O)[C@H](CC(=O)O)NC(=O)[C@H](CO)NC(=O)[C@@H](NC(=O)[C@H](Cc1ccccc1)NC(=O)[C@@H](NC(=O)CNC(=O)[C@H](CCC(N)=O)NC(=O)C(C)(C)NC(=O)[C@@H](N)Cc1c[nH]cn1)[C@@H](C)O)[C@@H](C)O)C(C)C)C(=O)N[C@@H](CO)C(=O)N[C@@H](CCCCNC(=O)CC[C@H](NC(=O)CC[C@H](NC(=O)COCCOCCNC(=O)COCCOCCNC(=O)CC[C@H](NC(=O)CCCCCCCCCCCCCCCCC(=O)O)C(=O)O)C(=O)O)C(=O)O)C(N)=O` [Chem. 30, N^ε29-[(4S)-4-carboxy-4-[[(4S)-4-carboxy-4-[[2-[2-[2-[[2-[2-[2-[[(4S)-4-carboxy-4-(17-carboxyheptadecanoylamino)butanoyl]amino]ethoxy]ethoxy]acetyl]amino]ethoxy]ethoxy]acetyl]amino]butanoyl]amino]butanoyl]-[Aib2,Leu10,Leu16,Arg20,Glu21,Ile27,Ser28,Lys29]-Glucagon amide] (H-H[Aib]QGTFTSDLSKYLDLRRAREFVQWLISK([γGlu-γGlu-AEEA-AEEA-γGlu-C18 diacid])-NH2; N-terminus assumed), the IC50 on human GLP-1 receptor is 0.9 nM. Besides, in data set [1], the “ThT Assay Lag time (h) [Assay (III), pH 7.5]” value (“ThT Assay Lag time (h)” for short) turned out to be 45.0 h.
In the case of `CC[C@H](C)[C@H](NC(=O)[C@H](CC(C)C)NC(=O)[C@H](Cc1c[nH]c2ccccc12)NC(=O)[C@H](CCC(N)=O)NC(=O)[C@@H](NC(=O)[C@H](Cc1ccccc1)NC(=O)[C@H](CCC(=O)O)NC(=O)[C@H](CCCNC(=N)N)NC(=O)[C@H](C)NC(=O)[C@H](CCCNC(=N)N)NC(=O)[C@H](CCCNC(=N)N)NC(=O)[C@H](CC(C)C)NC(=O)[C@H](CC(=O)O)NC(=O)[C@H](CC(C)C)NC(=O)[C@H](Cc1ccc(O)cc1)NC(=O)[C@H](CCCCN)NC(=O)[C@H](CO)NC(=O)[C@H](CC(C)C)NC(=O)[C@H](CC(=O)O)NC(=O)[C@H](CO)NC(=O)[C@@H](NC(=O)[C@H](Cc1ccccc1)NC(=O)[C@@H](NC(=O)CNC(=O)[C@H](CCC(N)=O)NC(=O)C(C)(C)NC(=O)[C@@H](N)Cc1c[nH]cn1)[C@@H](C)O)[C@@H](C)O)C(C)C)C(=O)N[C@@H](CC(N)=O)C(=O)N[C@@H](CCCCNC(=O)CC[C@H](NC(=O)CC[C@H](NC(=O)COCCOCCNC(=O)COCCOCCNC(=O)CC[C@H](NC(=O)CCCCCCCCCCCCCCCCC(=O)O)C(=O)O)C(=O)O)C(=O)O)C(N)=O` [Chem. 22, N^ε29-[(4S)-4-carboxy-4-[[(4S)-4-carboxy-4-[[2-[2-[2-[[2-[2-[2-[[(4S)-4-carboxy-4-(17-carboxyheptadecanoylamino)butanoyl]amino]ethoxy]ethoxy]acetyl]amino]ethoxy]ethoxy]acetyl]amino]butanoyl]amino]butanoyl]-[Aib2,Leu10,Leu16,Arg20,Glu21,Ile27,Lys29]-Glucagon amide] (H-H[Aib]QGTFTSDLSKYLDLRRAREFVQWLINK([γGlu-γGlu-AEEA-AEEA-γGlu-C18 diacid])-NH2; N-terminus assumed), the 50% inhibitory concentration (IC50) at human GLP-1 receptor amounted to 0.3 nM. Besides, the “ThT Assay Lag time (h)” value in data set [1] came to 45.0 h.
For the compound `CC[C@H](C)[C@H](NC(=O)[C@H](CC(C)C)NC(=O)[C@H](Cc1c[nH]c2ccccc12)NC(=O)[C@H](C)NC(=O)[C@@H](NC(=O)[C@H](Cc1ccccc1)NC(=O)[C@H](CC(=O)O)NC(=O)[C@H](CCC(N)=O)NC(=O)[C@H](C)NC(=O)[C@H](CCCNC(=N)N)NC(=O)[C@H](CCCNC(=N)N)NC(=O)[C@H](CO)NC(=O)[C@H](CCC(=O)O)NC(=O)[C@H](CC(C)C)NC(=O)[C@H](Cc1ccc(O)cc1)NC(=O)[C@H](CCCCN)NC(=O)[C@H](CO)NC(=O)[C@H](Cc1ccc(O)cc1)NC(=O)[C@H](CC(=O)O)NC(=O)[C@H](CO)NC(=O)[C@@H](NC(=O)[C@H](Cc1ccccc1)NC(=O)[C@@H](NC(=O)CNC(=O)[C@H](CCC(N)=O)NC(=O)C(C)(C)NC(=O)[C@@H](N)Cc1c[nH]cn1)[C@@H](C)O)[C@@H](C)O)C(C)C)C(=O)N[C@@H](CO)C(=O)N[C@@H](CCCCNC(=O)CC[C@H](NC(=O)CC[C@H](NC(=O)COCCOCCNC(=O)COCCOCCNC(=O)CC[C@H](NC(=O)CCCCCCCCCCCCCCCCC(=O)O)C(=O)O)C(=O)O)C(=O)O)C(N)=O` [Chem. 35, N^ε29-[(4S)-4-carboxy-4-[[(4S)-4-carboxy-4-[[2-[2-[2-[[2-[2-[2-[[(4S)-4-carboxy-4-(17-carboxyheptadecanoylamino)butanoyl]amino]ethoxy]ethoxy]acetyl]amino]ethoxy]ethoxy]acetyl]amino]butanoyl]amino]butanoyl]-[Aib2,Glu15,Ala24,Ile27,Ser28,Lys29]-Glucagon amide] (H-H[Aib]QGTFTSDYSKYLESRRAQDFVAWLISK([γGlu-γGlu-AEEA-AEEA-γGlu-C18 diacid])-NH2), the IC50 at human GLP-1 receptor is 2.2 nM. In data set [1], the “ThT Assay Lag time (h)” value came to 45.0 h.
Regarding `CC[C@H](C)[C@H](NC(=O)[C@H](CC(C)C)NC(=O)[C@H](Cc1c[nH]c2ccccc12)NC(=O)[C@H](CCC(N)=O)NC(=O)[C@@H](NC(=O)[C@H](Cc1ccccc1)NC(=O)[C@H](CC(=O)O)NC(=O)[C@H](CCCNC(=N)N)NC(=O)[C@H](C)NC(=O)[C@H](CCCNC(=N)N)NC(=O)[C@H](CCCNC(=N)N)NC(=O)[C@H](CC(C)C)NC(=O)[C@H](CC(=O)O)NC(=O)[C@H](CC(C)C)NC(=O)[C@H](Cc1ccc(O)cc1)NC(=O)[C@H](CCCCN)NC(=O)[C@H](CO)NC(=O)[C@H](CC(C)C)NC(=O)[C@H](CC(=O)O)NC(=O)[C@H](CO)NC(=O)[C@@H](NC(=O)[C@H](Cc1ccccc1)NC(=O)[C@@H](NC(=O)CNC(=O)[C@H](CCC(N)=O)NC(=O)C(C)(C)NC(=O)[C@@H](N)Cc1c[nH]cn1)[C@@H](C)O)[C@@H](C)O)C(C)C)C(=O)N[C@@H](CC(N)=O)C(=O)N[C@@H](CCCCNC(=O)CC[C@H](NC(=O)CC[C@H](NC(=O)COCCOCCNC(=O)COCCOCCNC(=O)CC[C@H](NC(=O)CCCCCCCCCCCCCCCCC(=O)O)C(=O)O)C(=O)O)C(=O)O)C(N)=O` [Chem. 23, N^ε29-[(4S)-4-carboxy-4-[[(4S)-4-carboxy-4-[[2-[2-[2-[[2-[2-[2-[[(4S)-4-carboxy-4-(17-carboxyheptadecanoylamino)butanoyl]amino]ethoxy]ethoxy]acetyl]amino]ethoxy]ethoxy]acetyl]amino]butanoyl]amino]butanoyl]-[Aib2,Leu10,Leu16,Arg20,Ile27,Lys29]-Glucagon amide] (H-H[Aib]QGTFTSDLSKYLDLRRARDFVQWLINK([γGlu-γGlu-AEEA-AEEA-γGlu-C18 diacid])-NH2; N-terminus assumed), the IC50 on human GLP-1 receptor was 0.3 nM. The “ThT Assay Lag time (h)” value in data set [1] turned out to be 45.0 h.
